From PubChem BioAssay (NCI)
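Exposure lasted 48 hours, with cells grown in 96-well plates and compounds tested at five concentrations. TGI: total growth inhibition.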

Assays:
Experiment in all cases: inhibition of tumour cell growth, NCI panel, 48 h
ACHN renal = test system: ACHN renal
NCI-H23 lung = test system: NCI-H23 lung
HL-60(TB) leukemia = test system: HL-60(TB) leukemia
SR leukemia = test system: SR leukemia
HOP-62 NSCLC = test system: HOP-62 NSCLC
SF-268 CNS = test system: SF-268 CNS
TK-10 renal = test system: TK-10 renal
CAKI-1 renal = test system: CAKI-1 renal
SK-OV-3 ovarian = test system: SK-OV-3 ovarian
RXF 393 renal = test system: RXF 393 renal
HCC-2998 colon = test system: HCC-2998 colon
HOP-92 NSCLC = test system: HOP-92 NSCLC

Question: With CC(=O)n1cc(CC(C)O)c(=O)[nH]c1=O (stereo unspecified) as the compound, how does the TGI (ACHN renal) read?
Answer: The TGI was > 100 µM.

Question: And the TGI (NCI-H23 lung)?
Answer: The TGI was > 100 µM.

Question: What about the TGI (HL-60(TB) leukemia) of the same compound?
Answer: The TGI was > 100 µM.

Question: What about the TGI (SR leukemia) of the same compound?
Answer: The TGI was > 100 µM.

Question: What about the TGI (HOP-62 NSCLC) of the same compound?
Answer: Its TGI is > 100 µM.

Question: What about the TGI (SF-268 CNS) of the same compound?
Answer: The TGI was > 100 µM.

Question: And the TGI (TK-10 renal)?
Answer: The TGI was > 100 µM.

Question: What about the TGI (CAKI-1 renal) of the same compound?
Answer: Its TGI is > 100 µM.

Question: And the TGI (SK-OV-3 ovarian)?
Answer: The TGI was > 100 µM.

Question: Which results are given for NC(=O)c1ccccc1NC(=O)C(=O)Nc1n[nH]c(N)n1?
Answer: TGI (ACHN renal): > 100 µM; TGI (NCI-H23 lung): > 100 µM; TGI (HL-60(TB) leukemia): > 100 µM; TGI (SR leukemia): > 100 µM; TGI (HOP-62 NSCLC): > 100 µM; TGI (RXF 393 renal): > 100 µM; TGI (TK-10 renal): > 100 µM; TGI (CAKI-1 renal): > 100 µM; TGI (SK-OV-3 ovarian): > 100 µM; TGI (HCC-2998 colon): > 100 µM

Question: How did the TGI (ACHN renal) turn out when C[N+](C)(C)CC(=O)N/N=C/c1oc(-c2cccc([N+](=O)[O-])c2)c(-c2cccc([N+](=O)[O-])c2)c1[N+](=O)[O-] was run?
Answer: The TGI was > 100 µM.

Question: What about the TGI (NCI-H23 lung) of the same compound?
Answer: Its TGI is > 100 µM.

Question: What about the TGI (HL-60(TB) leukemia) of the same compound?
Answer: The TGI was > 100 µM.

Question: What about the TGI (SR leukemia) of the same compound?
Answer: Its TGI is > 100 µM.

Question: What about the TGI (HOP-62 NSCLC) of the same compound?
Answer: The TGI was > 100 µM.

Question: What about the TGI (RXF 393 renal) of the same compound?
Answer: Its TGI is > 100 µM.

Question: And the TGI (SF-268 CNS)?
Answer: Its TGI is > 100 µM.

Question: And the TGI (TK-10 renal)?
Answer: The TGI was > 100 µM.

Question: What about the TGI (HOP-92 NSCLC) of the same compound?
Answer: Its TGI is > 100 µM.

Question: And the TGI (SK-OV-3 ovarian)?
Answer: The TGI was > 100 µM.

Question: What about the TGI (HCC-2998 colon) of the same compound?
Answer: Its TGI is > 100 µM.

Question: How did the TGI (ACHN renal) turn out when O=C(Cc1nc2ccc(C(=O)c3ccccc3)cc2[nH]c1=O)C(=O)Nc1ccc(C(F)(F)F)cc1[N+](=O)[O-] was run?
Answer: The TGI was > 100 µM.

Question: What about the TGI (NCI-H23 lung) of the same compound?
Answer: The TGI was > 100 µM.

Question: And the TGI (HL-60(TB) leukemia)?
Answer: The TGI was > 100 µM.

Question: And the TGI (SR leukemia)?
Answer: The TGI was > 100 µM.

Question: What about the TGI (HOP-62 NSCLC) of the same compound?
Answer: The TGI was > 100 µM.

Question: What about the TGI (SF-268 CNS) of the same compound?
Answer: The TGI was > 100 µM.

Question: And the TGI (TK-10 renal)?
Answer: The TGI was > 100 µM.

Question: And the TGI (CAKI-1 renal)?
Answer: Its TGI is > 100 µM.

Question: And the TGI (HOP-92 NSCLC)?
Answer: The TGI was > 100 µM.

Question: And the TGI (SK-OV-3 ovarian)?
Answer: The TGI was > 100 µM.

Question: And the TGI (HCC-2998 colon)?
Answer: The TGI was > 100 µM.

Question: What does the source list for CC1(Br)S(=O)(=O)OCCOS1(=O)=O?
Answer: TGI (ACHN renal): > 100 µM; TGI (NCI-H23 lung): > 100 µM; TGI (HL-60(TB) leukemia): > 100 µM; TGI (SR leukemia): > 100 µM; TGI (HOP-62 NSCLC): > 100 µM; TGI (RXF 393 renal): > 100 µM; TGI (SF-268 CNS): > 100 µM; TGI (TK-10 renal): > 100 µM; TGI (HOP-92 NSCLC): > 100 µM; TGI (SK-OV-3 ovarian): > 100 µM; TGI (HCC-2998 colon): > 100 µM

Question: C=CC(Br)(CBr)CCC(Br)C(C)(C)Br (stereo unspecified) was tested. Which TGI (ACHN renal) did it give?
Answer: Its TGI is 25.3 µM.

Question: And the TGI (NCI-H23 lung)?
Answer: The TGI was 30.3 µM.

Question: What about the TGI (SR leukemia) of the same compound?
Answer: The TGI was 21.5 µM.

Question: And the TGI (HOP-62 NSCLC)?
Answer: The TGI was 36.1 µM.

Question: What about the TGI (RXF 393 renal) of the same compound?
Answer: The TGI was 28.8 µM.

Question: What about the TGI (SF-268 CNS) of the same compound?
Answer: The TGI was 32.3 µM.

Question: What about the TGI (TK-10 renal) of the same compound?
Answer: The TGI was 30.3 µM.

Question: And the TGI (CAKI-1 renal)?
Answer: The TGI was 37.4 µM.

Question: What about the TGI (HOP-92 NSCLC) of the same compound?
Answer: Its TGI is 29.9 µM.

Question: What about the TGI (SK-OV-3 ovarian) of the same compound?
Answer: Its TGI is 35.7 µM.

Question: For COc1ccccc1NC(=O)CC(=O)n1nc(-c2ccccc2)c(N=Nc2ccccc2[N+](=O)[O-])c1-c1ccccc1, which TGI (ACHN renal) is on record?
Answer: Its TGI is > 100 µM.

Question: And the TGI (NCI-H23 lung)?
Answer: Its TGI is > 100 µM.

Question: And the TGI (HL-60(TB) leukemia)?
Answer: The TGI was > 100 µM.

Question: What about the TGI (SR leukemia) of the same compound?
Answer: The TGI was > 100 µM.

Question: And the TGI (HOP-62 NSCLC)?
Answer: Its TGI is > 100 µM.

Question: And the TGI (RXF 393 renal)?
Answer: The TGI was > 100 µM.

Question: And the TGI (SF-268 CNS)?
Answer: The TGI was > 100 µM.

Question: And the TGI (TK-10 renal)?
Answer: The TGI was > 100 µM.

Question: And the TGI (CAKI-1 renal)?
Answer: Its TGI is > 100 µM.

Question: And the TGI (HOP-92 NSCLC)?
Answer: Its TGI is > 100 µM.

Question: And the TGI (SK-OV-3 ovarian)?
Answer: Its TGI is > 100 µM.

Question: And the TGI (HCC-2998 colon)?
Answer: Its TGI is > 100 µM.

Question: How did the TGI (ACHN renal) turn out when Cc1ccc(SC2C(C)(C)N(C(C)C)P2(=O)N(C(C)C)C(C)C)cc1 (stereo unspecified) was run?
Answer: The TGI was > 100 µM.

Question: What about the TGI (NCI-H23 lung) of the same compound?
Answer: Its TGI is > 100 µM.

Question: And the TGI (HL-60(TB) leukemia)?
Answer: Its TGI is 41.9 µM.

Question: And the TGI (SR leukemia)?
Answer: The TGI was 31.4 µM.

Question: What about the TGI (HOP-62 NSCLC) of the same compound?
Answer: Its TGI is > 100 µM.

Question: And the TGI (SF-268 CNS)?
Answer: Its TGI is > 100 µM.

Question: And the TGI (TK-10 renal)?
Answer: The TGI was > 100 µM.

Question: What about the TGI (CAKI-1 renal) of the same compound?
Answer: Its TGI is > 100 µM.

Question: What about the TGI (HOP-92 NSCLC) of the same compound?
Answer: The TGI was 58.3 µM.

Question: What about the TGI (SK-OV-3 ovarian) of the same compound?
Answer: Its TGI is > 100 µM.

Question: And the TGI (HCC-2998 colon)?
Answer: Its TGI is > 100 µM.

Question: Which results are given for CCOC(=O)c1ncn2c1[nH]c(=O)c1ccccc12?
Answer: TGI (ACHN renal): > 100 µM; TGI (NCI-H23 lung): > 100 µM; TGI (SR leukemia): > 100 µM; TGI (RXF 393 renal): > 100 µM; TGI (SF-268 CNS): > 100 µM; TGI (TK-10 renal): > 100 µM
